Active and inactive are the calls of the source. The calls are words filed in the database; no cut-off is given here.
What was measured:
[1] = Cytotoxicity against mouse RAW264.7 cells assessed as cell viability at 1 to 5 ug/ml after 4 hrs by MTT assay; type: cell-based; conditions: read-out: Activity
RAW264.7 [2] = test: Antiinflammatory activity in mouse RAW264.7 cells assessed as inhibition of LPS-induced nitric oxide production after 24 hrs by immunoassay; type: functional, cell-based
RAW264.7 [3] = test: Antiinflammatory activity in mouse RAW264.7 cells assessed as inhibition of LPS-induced PGE2 production at 5 ug/ml after 24 hrs by immunoassay; type: functional, cell-based
RAW264.7 [4] = test: Antiinflammatory activity in mouse RAW264.7 cells assessed as inhibition of LPS-induced PGE2 production at 1 ug/ml after 24 hrs by immunoassay; type: functional, cell-based
RAW264.7 [5] = test: Antiinflammatory activity in mouse RAW264.7 cells assessed as inhibition of LPS-induced TNFalpha production after 24 hrs by immunoassay; type: functional, cell-based
RAW264.7 [6] = test: Antiinflammatory activity in mouse RAW264.7 cells assessed as inhibition of LPS-induced IL1-beta production at 1 to 5 ug/ml after 24 hrs by immunoassay; type: functional, cell-based
RAW264.7 [7] = test: Antiinflammatory activity in mouse RAW264.7 cells assessed as inhibition of LPS-induced IL-6 production at 1 to 5 ug/ml after 24 hrs by immunoassay; type: functional, cell-based

| Structure (SMILES) | viability at 4 h [1] [%] | Activity (RAW264.7 [2]) | Activity (RAW264.7 [3]) | inhibition (RAW264.7 [4]) | Activity (RAW264.7 [5]) | Activity (RAW264.7 [6]) | Activity (RAW264.7 [7]) |
| --- | --- | --- | --- | --- | --- | --- | --- |
| O=C1C2=C(C(=O)c3ccccc31)N(Cc1ccccc1)CCc1c2[nH]c2ccccc12 | 58 | Dose-dependent effect | Active | inactive | Dose-dependent effect | inactive | inactive |
| O=C1C2=C(C(=O)c3ccccc31)c1[nH]c3ccccc3c1CCN2 | 58 | Dose-dependent effect | Active | inactive | Dose-dependent effect | inactive | inactive |
| C=CCN1CCc2c([nH]c3ccccc23)C2=C1C(=O)c1ccccc1C2=O | 24 | Dose-dependent effect | Active | – | Dose-dependent effect | inactive | inactive |
| CN1CCc2c([nH]c3ccccc23)C2=C1C(=O)c1ccccc1C2=O | 58 | Dose-dependent effect | Active | – | Dose-dependent effect | inactive | inactive |
| COc1ccc2[nH]c3c(c2c1)CCNC1=C3C(=O)c2ccccc2C1=O | 58 | Dose-dependent effect | Active | inactive | Dose-dependent effect | inactive | inactive |
| CCCN1CCc2c([nH]c3ccccc23)C2=C1C(=O)c1ccccc1C2=O | 58 | Dose-dependent effect | Active | – | Dose-dependent effect | inactive | inactive |
| COc1cccc2c1C(=O)C1=C(NCCc3c1[nH]c1ccccc31)C2=O | 58 | Dose-dependent effect | Active | inactive | Dose-dependent effect | inactive | inactive |
